Measured values taken from PMC3003306 (Structure (London, England : 1993), 2010).

Biological target: T1, IGPS (HisF-HisH heterodimer), glutaminase site in HisH (Thermotoga maritima, UniProt Q9X0C8)
T1 sequence (Q9X0C8 1-201): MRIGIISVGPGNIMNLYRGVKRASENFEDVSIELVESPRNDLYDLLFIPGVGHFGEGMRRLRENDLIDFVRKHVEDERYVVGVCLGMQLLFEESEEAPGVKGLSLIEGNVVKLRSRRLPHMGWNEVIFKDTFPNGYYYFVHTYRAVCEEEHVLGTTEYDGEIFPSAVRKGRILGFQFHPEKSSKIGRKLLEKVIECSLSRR
T1 sequence (Q9X0C6 1-253 partner): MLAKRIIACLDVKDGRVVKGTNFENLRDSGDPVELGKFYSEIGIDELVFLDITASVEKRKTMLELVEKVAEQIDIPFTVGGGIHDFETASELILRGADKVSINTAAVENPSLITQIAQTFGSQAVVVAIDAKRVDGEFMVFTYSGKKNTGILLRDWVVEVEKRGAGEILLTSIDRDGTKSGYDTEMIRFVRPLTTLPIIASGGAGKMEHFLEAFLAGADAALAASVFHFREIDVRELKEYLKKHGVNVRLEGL
Test: covalent modification of HisH C84 followed by DTNB analysis
Assay type: binding
Settings: 1.5 molar equivalents acivicin, room temperature, HisH active site nucleophile C84

`N[C@H](C(=O)O)[C@@H]1CC(Cl)=NO1` [acivicin] was tested, and the “covalent modification of HisH C84 followed by DTNB analysis; NMR” value was “IGPS (HisH-C84) was covalently modified with acivicin”.
